Assay results from article PMC10892984, “Novel Antineoplastic Inducers of Mitochondrial Apoptosis in Human Cancer Cells” (Molecules, 2024).

Test system: HL-60 (TB)
Details: for CC50: read-out: LC50; for TGI: HL-60 (TB), leukemia, mutant p53, 48 h

## c1cc(CNC23CC4CC(CC(C4)C2)C3)cc(C[N+](Cc2cccc(CNC34CC5CC(CC(C5)C3)C4)c2)(Cc2cccc(CNC34CC5CC(CC(C5)C3)C4)c2)Cc2cccc(CNC34CC5CC(CC(C5)C3)C4)c2)c1 (centres unmarked) [Compound 1, tetrakis{3-[(tricyclo[3.3.1.1^3,7]decan-1-ammonio)methyl]benzyl}ammonium pentachloride]
Homo sapiens, HL-60, 48 h
  CC50: > 50 µM

## COc1cc2c(c(OC)c1OC)-c1ccc(NNC(N)=S)c(=O)cc1C(NC(C)=O)CC2 [Compound 2, N-[(aS,7S)-10-(2-carbamothioylhydrazinyl)-1,2,3-trimethoxy-9-oxo-5,6,7,9-tetrahydrobenzo[a]heptalen-7-yl]acetamide monohydrate × ⅔ (ethyl acetate)]
  TGI: 1.26 µM
Homo sapiens, HL-60, 48 h
  GI50: 113 nM
  CC50: > 100 µM

## COc1cc2c(c(OC)c1OC)-c1ccc(NNC(=S)N(Cc3cccc(C[N+](Cc4cccc(CNC56CC7CC(CC(C7)C5)C6)c4)(Cc4cccc(CNC56CC7CC(CC(C7)C5)C6)c4)Cc4cccc(CN(C(=S)NNc5ccc6c(cc5=O)C(NC(C)=O)CCc5cc(OC)c(OC)c(OC)c5-6)C56CC7CC(CC(C7)C5)C6)c4)c3)C34CC5CC(CC(C5)C3)C4)c(=O)cc1C(NC(C)=O)CC2 [Compound 3, [(bis{3-[(tricyclo[3.3.1.1^3,7]decan-1-ylamino)methyl]benzyl}ammonio)bis(methanediylbenzene-3,1-diylmethanediyl)]di-2-[(aS,7S)-7-(acetylamino)-1,2,3-trimethoxy-9-oxo-5,6,7,9-tetrahydrobenzo[a]heptalen-10-yl]-N-(tricyclo[3.3.1.1^3,7]decan-1-yl)hydrazinecarbothioamide chloride pentahydrate]
  TGI: 1.03 µM
